Data as given in patent US8481597B2, “Use of (-) (3-trihalomethylphenoxy) (4-halophenyl) acetic acid derivatives for treatment of insulin resistance, type 2 diabetes, hyperlipidemia and hyperuricemia” (Metabolex, Inc., priority 1999, dated 2013).
“Also recorded” adds a separate entry of the source.

Key:
[1] = system: oxonic acid induced hyperuricemic rats; experiment: Plasma uric acid in oxonic acid induced hyperuricemic rats (Example 17); type: in vivo, SD rats; settings: oral 50 mg/kg for 3 days, 100 mg/kg on the 4th day; blood 6 hours post gavage on day 4
Source text: Male SD rats, weight 275-300 g were purchased from Charles River. […] To establish a hyperuricemic state, animals were put on a diet containing 2.5% (w/w) of oxonic acid (Sigma Chemical Co, St. Louis, Mo., USA) throughout the experiment. Oxonic acid elevates plasma uric acid by inhibiting uricase. Rats were screened for plasma uric acid levels 3 days after they were placed on the diet, and those that had extreme plasma uric acid levels were excluded. Rats were assigned to one of three groups and the mean uric acid levels were equivalent in each group. […] Oxonic acid was delivered in a liquid formulation containing 0.9% (w/v) methylcellulose. The gavage and injection volumes were 5 ml/kg. Blood samples were taken at 6 hours post oral gavage on day 4. Plasma uric acid levels were determined colorimetrically using the Infinity Uric Acid Reagent (Sigma Chemical Co, St. Louis, Mo., USA).

C57BL/6J ob/ob mice = experiment: Time course of glucose-lowering after a single oral dose in diabetic ob/ob mice (Example 8); type: in vivo; settings: single oral dose 250 mg/kg; for time course of glucose-lowering, in words: 250 mg/kg

With CC(=O)NCCOC(=O)C(Oc1cccc(C(F)(F)F)c1)c1ccc(Cl)cc1 (single isomer, unassigned; (-)) [(−) halofenate, (−) 2-acetamidoethyl 4-chlorophenyl-(3-trifluoromethylphenoxy)acetate] as the compound, how does the “plasma uric acid levels, in words” value [1] read?
The value was “significantly reduced plasma uric acid levels”.

What about the “earliest time of plasma glucose reduction / significant activity” value (C57BL/6J ob/ob mice) of the same compound?
Its value is 1.5 h.

And the “time of peak glucose-lowering activity” value (C57BL/6J ob/ob mice)?
Its value is 3 h.

And the “time course of glucose-lowering, in words” value (C57BL/6J ob/ob mice)?
Its value is “more rapid onset and sustained longer”.

What about the “time course of glucose-lowering, in words” value (C57BL/6J ob/ob mice; listed as (−) enantiomer) of the same compound?
Its value is “most rapid onset of action and the longest duration of action; also recorded: more effective and significantly different (p<0.05) from the (+) enantiomer at both the 3 hour and 24 hour time points”.

What about the “plasma glucose at 24 hours” value (C57BL/6J ob/ob mice; vehicle 408±16.2) of the same compound?
The value was 217 ± 16.4 mg/dL.
